Reference: patent US20250163057A1, “DCN-1 MODULATING COMPOUNDS AND METHODS OF USE THEREOF” (Cellarity, Inc., priority 2023, published 2025)
pIC50: −log10 of the molar value. Structures can show the parent of a compound that is named as a salt. Where two headings read alike, the source gives them in different places.

Legend:
[1] = molecular target: DCN1 (DCUND1) protein PONY domain (Homo sapiens (Human), UniProt Q96GG9); assay: TR-FRET assay, DCN1 binding with FAM-labeled probe; settings: for IC50: TR FRET IC50 1 hr (nM)
Sequence of DCN1 (DCUND1) protein PONY domain (Q96GG9 60-248): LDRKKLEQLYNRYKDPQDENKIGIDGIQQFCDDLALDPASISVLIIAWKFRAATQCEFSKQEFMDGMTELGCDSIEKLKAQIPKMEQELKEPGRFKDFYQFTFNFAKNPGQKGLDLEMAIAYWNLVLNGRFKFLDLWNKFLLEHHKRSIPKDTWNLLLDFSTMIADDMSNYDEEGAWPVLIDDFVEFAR
Summary of the method: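 Tb-DCN1 PONY domain (E. coli, biotin/streptavidin-Tb); FAM-labelled non-covalent inhibitor probe; TritonX buffer, 200 mM NaCl; 5 nM DCN1 + 20 nM probe or 0.31 nM DCN1 + 900 nM total probe; 0.1% DMSO; TR-FRET read 1, 5, 24 hrs.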

[2] = tested on: Cullin-3 (CUL3) neddylation; assay: AlphaLISA assay for Cullin-3 (CUL3) neddylation in TF 1 cells; assay type: cell-based; settings: 3 hours treatment
Summary of the method: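 Neddylated CUL3 was quantified by AlphaLISA in lysates of TF 1 cells exposed for 3 h to test compound in IMDM without supplements. Percent inhibition set between vehicle and 1 μM DI-1548 positive control; IC50 derived by Hill-equation fitting of dose-response curves.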

[3] = 24 hr after treatment with compound, read-out: TR FRET IC50 24 hr
[4] = 1 hr after treatment with compound

| SMILES | pIC50 [1, 3] | IC50 [1, 4] [nM] | pIC50 ([2]; Homo sapiens, TF-1, 3 h) | pIC50 ([1]; read-out: TR FRET IC50 1 hr, 1 hr after treatment with compound) | pIC50 [2] |
| --- | --- | --- | --- | --- | --- |
| CCN1C(=O)[C@@H](NC(=O)c2cccc(C(F)(F)F)c2)[C@@H](c2ccc(F)cc2)c2c(CN(C)C/C=C/C(=O)OC(C)(C)C)nn(-c3ccccc3)c21 [Compound I-604, tert-butyl (E)-4-((((4S,5S)-7-ethyl-4-(4-fluorophenyl)-6-oxo-1-phenyl-5-(3-(trifluoromethyl)benzamido)-4,5,6,7-tetrahydro-1H-pyrazolo[3,4-b]pyridin-3-yl)methyl)(methyl)amino)but-2-enoate] | 5.52 to 6.00 | 1000 to 3000 | < 6.00 |  |  |
| C=CC(=O)N[C@H](C)c1nn(-c2ccccc2)c2c1[C@H](c1ccc(F)cc1)[C@@H](NC(=O)c1nccc(C(F)(F)F)n1)C(=O)N2CC [Compound I-605] | 5.52 to 6.00 | 1000 to 3000 | < 6.00 |  |  |
| CCN1C(=O)[C@@H](NC(=O)c2cccc(C(F)(F)F)c2)[C@@H](c2ccc(F)cc2)c2c(CN(C)C/C=C/C(=O)N3CCCC3)nn(-c3ccccc3)c21 [Compound I-606] | 6.00 to 6.70 | 200 to 1000 | < 6.00 |  |  |
| CCN1C(=O)[C@@](CO)(NC(=O)c2cccc(C(F)(F)F)c2)[C@@H](c2ccc(F)cc2)c2c([C@@H](C)NC#N)nn(-c3ccccc3)c21 [Compound I-608] | ≥ 6.70 | 1000 to 3000 | < 6.00 |  |  |
| CCN1C(=O)[C@H](NC(=O)c2cccc(C(F)(F)F)c2)[C@@H](c2ccc(F)cc2)c2c([C@@H](C)N(C#N)CCCN(C)C)nn(-c3ccccc3)c21 [Compound I-609, N-((4S,5R)-3-((R)-1-(N-(3-(dimethylamino)propyl)cyanamido)ethyl)-7-ethyl-4-(4-fluorophenyl)-6-oxo-1-phenyl-4,5,6,7-tetrahydro-1H-pyrazolo[3,4-b]pyridin-5-yl)-3-(trifluoromethyl)benzamide formate] | ≥ 6.70 |  | < 6.00 | ≥ 6.70 |  |
| CCN1C(=O)[C@H](NC(=O)c2cccc(C(F)(F)F)c2)[C@H](c2ccc(F)cc2)c2c(C(=O)N3CCC[C@H]3C#N)nn(-c3ccccc3)c21 [Compound I-611] | 5.52 to 6.00 | 1000 to 3000 | < 6.00 |  |  |
| CCN1C(=O)[C@@H](NC(=O)c2cccc(C(F)(F)F)c2)[C@@H](c2ccc(F)cc2)c2c(CN(C#N)CCCN3CCN(C4COC4)CC3)nn(-c3ccccc3)c21 [Compound I-614] | ≥ 6.70 | 200 to 1000 | ≥ 7.00 |  |  |
| CCN1C(=O)[C@H](NC(=O)c2cccc(C(F)(F)F)c2)[C@H](c2ccc(F)cc2)c2c(C(=O)N3CCC[C@H]3C#N)nn(-c3cccc(OCCN4CCC5(CC4)COC5)c3)c21 [Compound I-616] | 5.52 to 6.00 | 1000 to 3000 | < 6.00 |  |  |
| CCN1C(=O)[C@@H](NC(=O)c2cccc(C(F)(F)F)c2)[C@@H](C2CC2)c2c(C(=O)N(CC#N)C3CC3)nn(-c3ccccc3)c21 [Compound I-619] | ≥ 6.70 | 1000 to 3000 | 6.00 to 7.00 |  |  |
| CCN1C(=O)[C@@H](NC(=O)c2cccc(C(F)(F)F)c2)[C@@H](C2CC2)c2c(C(=O)N3[C@H](C)CC[C@H]3C#N)nn(C3CCOCC3)c21 [Compound I-621] | 5.52 to 6.00 | 1000 to 3000 | < 6.00 |  |  |
| CCN1C(=O)[C@@H](NC(=O)c2cccc(C(F)(F)F)c2)[C@@H](c2ccc(F)cc2)c2c(CN3C(=O)CC[C@H]3C#N)nn(-c3ccccc3)c21 [Compound I-622, N-((4S,5S)-3-(((S)-2-cyano-5-oxopyrrolidin-1-yl)methyl)-7-ethyl-4-(4-fluorophenyl)-6-oxo-1-phenyl-4,5,6,7-tetrahydro-1H-pyrazolo[3,4-b]pyridin-5-yl)-3-(trifluoromethyl)benzamide] | 5.52 to 6.00 | 1000 to 3000 | < 6.00 |  |  |
| CCN1C(=O)[C@@H](NC(=O)c2cccn(C3CC3)c2=O)[C@@H](C2CC2)c2c(C(=O)N3[C@H](C#N)C[C@H]4C[C@H]43)nn(C3CCOCC3)c21 [Compound I-624] | 6.00 to 6.70 | 200 to 1000 |  |  | ≥ 7.00 |
